Test results taken from US5856535A, “Aminosterol ester compounds” (priority 1996, dated 1999).
≈ marks a conversion by molar mass, not a printed value.

Legend:
melanoma cells = test: MTT assay for cell number; type: cell-based; conditions: for minimal effective concentration: 48 h, Table II, read-out: Minimum Effective Concentration, MTT assay; for IC50: Tables III-V, read-out: MTT assay IC50
Method: In Table V, several aminosterol esters show efficacy in killing melanoma cells in the MTT assay.
The MTT assay for cell number is performed as follows. Cells are counted on a hemocytometer and diluted to a concentration of approx. 10,000 cells/well (55,000 cells/ml×0.18 ml). Cells are then plated in a 96 well microtiter plate and allowed to attach overnight. The next day, compounds are serially diluted from 1000 to 15.6 μg/ml and run in duplicate. 20 μl of each dilution are transferred to the pre-seeded microtiter plates. The final concentrations are 100 to 1.56 μg/ml. The plates are then incubated for 48 hours at 37° C. in 5% CO2. After 48 hours, MTT solution is added. The plate is re-incubated for 4 hours. Readings are done by removing all but 30 μl of media and MTT solution and dissolving the formazan crystals with DMSO. The formazan is dissolved by mixing on a rotating plate at low speed for about 30 minutes. Absorbance of converted dye is measured at a wavelength of 560 nm with background subtraction at 630 nm. The percent survival is determined by a comparison between the mean absorbance of the duplicate test lanes and the growth control.

[1] = tested on: chick embryo vitelline capillaries; test: chick embryo vitelline capillary regression assay; type: in vivo; design: key to Chick embryo vitelline capillary regression: +: Vascular reactivity; 0: No vascular reactivity; +/-: Equivocal reactivity; conditions: for Chick embryo vitelline capillary regression: 60 minutes
Method: Using the chick embryo vitelline capillaries assay, various aminosterol compounds were tested for their ability to induce capillary regression. Each compound was applied in 0.1 ml of 15% Ficol 400 and PBS onto the embryo, and vascular regression was assessed after 60 minutes. These tests were conducted by the chorioallantoic membrane anti-angiogenesis assay by applying the material to be assayed to 3 day old fertilized chick embryos in the manner described by Wilks et al., "Inhibition of Angiogenesis With Combination Angiostatic Steroids and Suramin," Radiation Biology, Vol. 60, Nos. 1/2, 1991, pp. 73-77, which article is entirely incorporated herein by reference.
The 3-day chick embryo consists of an embryonic disc from which numerous vessels emerge and return, forming a "figure 8"-shaped structure--the embryo in the center with vascular loops extending outward over both poles. […] Following a lag period of around 15 minutes, the constriction of continuity between capillary and secondary vessels, generally on the "venous" side, was observed. Continued pulsatile blood flow progressed, resulting in a "swelling" of the blind tube, followed by a pinching off of the remaining connection and formation of an enclosed vascular sac resembling a "blood island." This process progressed until only the largest vessels remained intact.

[2] = inhibition of MSI-1436 binding; conditions: 3H-MSI-1436 at 20 μg/mL

SMILES | minimal effective concentration (melanoma cells) [µg/mL] | IC50 (melanoma cells) [µg/mL] | further results
COC(=O)CCC(C)[C@H]1CCC2C3C(CC[C@@]21C)[C@@]1(C)CC[C@@H](NCCN)C[C@H]1C[C@H]3O (some centres unmarked) [drawing 70] | 2.6 |  | 
COC(=O)CCC(C)[C@H]1CCC2C3C(CC[C@@]21C)[C@@]1(C)CC[C@H](NCCN)C[C@H]1C[C@H]3O (some centres unmarked) |  | 5.3 (≈ 11.8 µM) | 
CC(C)CCC[C@@H](C)[C@H]1CC[C@H]2[C@@H]3CC[C@H]4C[C@@H](NCCCNCCCCN)CC[C@]4(C)[C@H]3CC[C@]12C [Compound 303] |  |  | Chick embryo vitelline capillary regression ([1]; 1 μg applied): 0
CC(CCC(=O)O)[C@H]1CCC2C3CC[C@H]4C[C@@H](NCCCNCCCCN)CC[C@]4(C)C3CC[C@@]21C (some centres unmarked) | 13.8 |  | 
COC(=O)CCC(C)[C@H]1CCC2C3C[C@@H](O)[C@H]4C[C@@H](NCCN)CC[C@]4(C)C3CC[C@@]21C (some centres unmarked) |  | 0.8 (≈ 1.78 µM) | 
COC(=O)CCC(C)[C@H]1CCC2C3CC[C@@H]4C[C@H](NCCN)CC[C@]4(C)C3C[C@H](O)[C@@]21C (some centres unmarked) [drawing 109] |  | 2.4 (≈ 5.35 µM) | 
COC(=O)CC[C@@H](C)[C@H]1CC[C@H]2[C@@H]3[C@H](O)C[C@H]4C[C@@H](NCCCNCCCCNCCCN)CC[C@]4(C)[C@H]3CC[C@]12C [Compound 396] |  |  | Chick embryo vitelline capillary regression ([1]; 0.001 μg applied): 0; Chick embryo vitelline capillary regression ([1]; 0.01 μg applied): 0; Chick embryo vitelline capillary regression ([1]; 0.1 μg applied): 0
COC(=O)CCC(C)[C@H]1CCC2C3CC[C@@H]4C[C@H](NCCN)CC[C@]4(C)C3C[C@H](O)[C@@]21C (some centres unmarked) [drawing 90] | 2.4 |  | 
COC(=O)CCC(C)[C@H]1CCC2C3CC[C@H]4C[C@H](NCCCNCCCCNCCCN)CC[C@]4(C)C3CC[C@@]21C (some centres unmarked) [drawing 118] |  | 13 (≈ 22.6 µM) | % Inhib. of MSI-1436 Binding @ 100 μg/mL [2]: 49%
COC(=O)CCC(C)[C@H]1CCC2C3CC[C@H]4C[C@@H](NCCCNCCCCNCCCN)CC[C@]4(C)C3CC[C@@]21C (some centres unmarked) [drawing 75] | 5 |  | 
COC(=O)CCC(C)[C@H]1CCC2C3CC[C@H]4C[C@H](NCCCNCCCCNCCCN)CC[C@]4(C)C3CC[C@@]21C (some centres unmarked) [drawing 84] | 6.8 |  | 
COC(=O)CCC(C)[C@H]1CCC2C3C(CC[C@@]21C)[C@@]1(C)CC[C@@H](NCCCNCCCCNCCCN)C[C@@H]1C[C@H]3O (some centres unmarked) |  | 7.8 (≈ 13.2 µM) | % Inhib. of MSI-1436 Binding @ 100 μg/mL [2]: 15%
C[C@H](CCC(=O)O)[C@H]1CC[C@H]2[C@@H]3CC[C@H]4C[C@H](NCCCNCCCCN)CC[C@]4(C)[C@H]3CC[C@]12C [Compound 318] |  |  | Chick embryo vitelline capillary regression ([1]; 1 μg applied): 0
COC(=O)CCC(C)[C@H]1CCC2C3C[C@@H](O)[C@H]4C[C@H](NCCN)CC[C@]4(C)C3CC[C@@]21C (some centres unmarked) |  | 2.9 (≈ 6.46 µM) | 
COC(=O)CCC(C)[C@H]1CCC2C3C(CC[C@@]21C)[C@@]1(C)CC[C@H](NCCCNCCCCNCCCN)C[C@H]1C[C@H]3O (some centres unmarked) |  | 7.9 (≈ 13.4 µM) | % Inhib. of MSI-1436 Binding @ 100 μg/mL [2]: 19%
COC(=O)CCC(C)[C@H]1CCC2C3C[C@@H](O)[C@H]4C[C@@H](NCCCNCCCCN)CC[C@]4(C)C3CC[C@@]21C (some centres unmarked) |  | 12 (≈ 22.5 µM) | % Inhib. of MSI-1436 Binding @ 100 μg/mL [2]: 57%
COC(=O)CCC(C)[C@H]1CCC2C3C(CC[C@@]21C)[C@@]1(C)CC[C@H](NCCCNCCCCNCCCN)C[C@@H]1C[C@H]3O (some centres unmarked) [drawing 115] |  | 8.1 (≈ 13.7 µM) | % Inhib. of MSI-1436 Binding @ 100 μg/mL [2]: 32%
CC(CCC(=O)O)[C@H]1CCC2C3C(CC[C@@]21C)[C@@]1(C)CC[C@@H](NCCCNCCCCN)C[C@@H]1C[C@H]3O (some centres unmarked) | 58.6 |  | 
C[C@H](CCC(=O)O)[C@H]1CC[C@H]2[C@@H]3[C@H](O)C[C@@H]4C[C@@H](NCCN)CC[C@]4(C)[C@H]3CC[C@]12C [Compound 415] |  |  | effect on vitelline capillaries (in words) ([1]; 3- to 5-day chick embryo): especially active
CC(CCC(=O)O)[C@H]1CCC2C3C(CC[C@@]21C)[C@@]1(C)CC[C@H](NCCCNCCCCNCCCN)C[C@H]1C[C@H]3O (some centres unmarked) [drawing 86] | 18.1 |  | 
COC(=O)CCC(C)[C@H]1CCC2C3C(CC[C@@]21C)[C@@]1(C)CC[C@@H](NCCCNCCCCN)C[C@H]1C[C@H]3O (some centres unmarked) [drawing 116] |  | 12 (≈ 22.5 µM) | % Inhib. of MSI-1436 Binding @ 100 μg/mL [2]: 18%
